Source: patent US20240279215A1 (Cytokinetics, Incorporated, priority 2022, published 2024)
Structures can show the parent of a compound that is named as a salt.

Molecular target: human NAMPT (Homo sapiens (Human), UniProt P43490)
Assay: NMN fluorescence biochemical assay (human recombinant NAMPT enzyme assay)
How it was run: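 NMN formed was detected by fluorescence (Ex/Em 355/460 nm) after acetophenone, KOH and formic acid derivatization. The cell-free reaction ran 60 min at ambient temperature with 6 nM human NAMPT, 150 μM nicotinamide, 20 μM PRPP, 2.5 mM ATP, pH 7.2 HEPES, and compound dose responses.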

Chain of human NAMPT (P43490 whole entry): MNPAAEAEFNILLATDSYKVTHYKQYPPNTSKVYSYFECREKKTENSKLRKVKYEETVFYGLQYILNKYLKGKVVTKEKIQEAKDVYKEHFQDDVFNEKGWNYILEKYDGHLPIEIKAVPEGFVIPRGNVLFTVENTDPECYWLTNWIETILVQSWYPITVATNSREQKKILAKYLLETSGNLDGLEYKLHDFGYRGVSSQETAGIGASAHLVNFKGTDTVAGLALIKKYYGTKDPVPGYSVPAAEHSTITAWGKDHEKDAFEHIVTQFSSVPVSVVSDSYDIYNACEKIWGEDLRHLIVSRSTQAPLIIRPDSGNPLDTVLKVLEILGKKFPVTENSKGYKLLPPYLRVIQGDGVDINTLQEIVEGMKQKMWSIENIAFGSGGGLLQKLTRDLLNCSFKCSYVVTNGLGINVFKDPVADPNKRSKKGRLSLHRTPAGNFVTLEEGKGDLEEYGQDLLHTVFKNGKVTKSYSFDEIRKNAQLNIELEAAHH

AC1.4 Human | EC50 | Structure (SMILES)
0.05 µM | 48.3 µM | CCC(=O)N1CCC(c2ccc(NC(=O)OCc3cnco3)cc2F)CC1 [Compound 412, oxazol-5-ylmethyl (3-fluoro-4-(1-propionylpiperidin-4-yl)phenyl)carbamate]
1.70 µM | 6.45 µM | Cc1ncccc1C(=O)NCc1ccc(NC(=O)OCc2ccc(Cl)cc2)cc1 [Compound 192, (4-chlorophenyl)methyl N-(4-{[(2-methylpyridin-3-yl)formamido]methyl}phenyl)carbamate]
0.38 µM | 1.01 µM | O=C(Nc1ccc(NS(=O)(=O)Cc2ccccc2)cc1)OCc1ccc(Cl)cc1 [Compound 33, 4-chlorobenzyl (4-((phenylmethyl)sulfonamido)phenyl)carbamate]
1.41 µM | 9.33 µM | COC1CN(C(=O)N[C@@H](C)c2ccc(NC(=O)OCc3ccc(Cl)cc3)cc2)C1 [Compound 170, (4-chlorophenyl)methyl N-{4-[(1S)-1-(3-methoxyazetidine-1-carbonylamino)ethyl]phenyl}carbamate]
0.08 µM | 4.17 µM | CC(=O)N1CCC2(CC(Cc3ccc(NC(=O)OCc4cnco4)cc3F)C2)C1 (stereo not shown) [Compound 374, oxazol-5-ylmethyl (4-((6-acetyl-6-azaspiro[3.4]octan-2-yl)methyl)-3-fluorophenyl)carbamate]
1.08 µM | 9.37 µM | CC(C)(C)OC(=O)N1CCC2(CC(Cc3ccc(NC(=O)OCc4cnco4)cc3F)C2)C1 (stereo not shown) [Compound 377, tert-butyl 2-(2-fluoro-4-(((oxazol-5-ylmethoxy)carbonyl)amino)benzyl)-6-azaspiro[3.4]octane-6-carboxylate]
20.27 µM | 44.4 µM | O=C(Nc1ccc(Cc2ccns2)cc1)OCc1ccc(Cl)cc1 [Compound 350, 4-chlorobenzyl (4-(isothiazol-5-ylmethyl)phenyl)carbamate]
1.07 µM | 13.7 µM | COC1CCN(C(=O)N(C)[C@@H](C)c2ccc(NC(=O)OCc3ccc(Cl)cc3)cc2)CC1 [Compound 134, 4-chlorobenzyl (S)-(4-(1-(4-methoxy-N-methylpiperidine-1-carboxamido)ethyl)phenyl)carbamate]
0.41 µM | 3.67 µM | Cc1ccc(C(=O)NCc2ccc(NC(=O)OCc3ccncc3)cc2)cn1 [Compound 37, pyridin-4-ylmethyl (4-((6-methylnicotinamido)methyl)phenyl)carbamate]
1.85 µM | 14.7 µM | Cc1n[nH]c(C)c1C(=O)N(C)Cc1ccc(NC(=O)OCc2ccc(Cl)cc2)cc1 [Compound 206, (4-chlorophenyl)methyl N-(4-{[1-(3,5-dimethyl-1H-pyrazol-4-yl)-N-methylformamido]methyl}phenyl)carbamate]
0.18 µM | 13.3 µM | O=C(Nc1ccc(CC2CCN(C(=O)N3CCCC3)CC2)cc1)OCc1cnco1 [Compound 462, oxazol-5-ylmethyl (4-((1-(pyrrolidine-1-carbonyl)piperidin-4-yl)methyl)phenyl)carbamate]
0.98 µM | 15.3 µM | CN1CCC(C(=O)NCc2ccc(NC(=O)OCc3ccc(Cl)cc3)cc2)CC1=O (stereo not shown) [Compound 124, (4-chlorophenyl)methyl N-(4-{[(1-methyl-2-oxopiperidin-4-yl)formamido]methyl}phenyl)carbamate]
1.33 µM | 5.32 µM | Cc1cc(C(=O)N(C)Cc2ccc(NC(=O)OCc3ccc(Cl)cc3)cc2)on1 [Compound 160, (4-chlorophenyl)methyl N-(4-{[N-methyl-1-(3-methyl-1,2-oxazol-5-yl)formamido]methyl}phenyl)carbamate]
29.04 µM | 18.2 µM | Cc1ccc(S(=O)(=O)NCc2ccc(NC(=O)OCc3ccc(Cl)cc3)cc2)cn1 [Compound 356, (4-chlorophenyl)methyl N-{4-[(6-methylpyridine-3-sulfonamido)methyl]phenyl}carbamate]
0.24 µM | 23.3 µM | CN(C)S(=O)(=O)N1CCC[C@@H](c2ccc(NC(=O)OCc3cnco3)cc2)C1 [Compound 384, oxazol-5-ylmethyl (S)-(4-(1-(N,N-dimethylsulfamoyl)piperidin-3-yl)phenyl)carbamate]
1.03 µM | 8.13 µM | CN(Cc1ccc(NC(=O)OCc2ccc(Cl)cc2)cc1)C(=O)c1cnco1 [Compound 130, (4-chlorophenyl)methyl N-(4-[(N-methyl-1-1,3-oxazol-5-ylformamido)methyl]phenyl}carbamate]
3.78 µM | 9.55 µM | O=C(Nc1ccc(CNC(=O)C2CCOCC2)cc1)OCc1ccc(Cl)cc1 [Compound 285, (4-chlorophenyl)methyl N-{4-[(oxan-4-ylformamido)methyl]phenyl}carbamate]
3.97 µM | 38.2 µM | COc1ccc(COC(=O)Nc2ccc(COC3CCN(C4COC4)CC3)cc2)cc1 [Compound 291, 4-methoxybenzyl (4-(((1-(oxetan-3-yl)piperidin-4-yl)oxy)methyl)phenyl)carbamate]
0.35 µM | 44 µM | CS(=O)(=O)N1CCC(Cc2ccc(NC(=O)OCc3cnco3)cc2)C2CC21 (stereo not shown) [Compound 453, oxazol-5-ylmethyl (4-((2-(methylsulfonyl)-2-azabicyclo[4.1.0]heptan-5-yl)methyl)phenyl)carbamate]
23.63 µM | 24.3 µM | O=C(Nc1ccc(Cc2cocn2)cc1)OCc1ccc(Cl)cc1 [Compound 353, 4-chlorobenzyl (4-(oxazol-4-ylmethyl)phenyl)]
3.95 µM | 16.9 µM | C[C@H](NC(=O)c1ocnc1C1CC1)c1ccc(NC(=O)OCc2ccc(Cl)cc2)cc1 [Compound 290, (4-chlorophenyl)methyl N-{4-[(1S)-1-[(4-cyclopropyl-1,3-oxazol-5-yl)formamido]ethyl]phenyl}carbamate]
1.57 µM | 15.2 µM | CC1(C)CCN1C(=O)Cc1ccc(NC(=O)OCc2ccc(Cl)cc2)cc1 [Compound 183, (4-chlorophenyl)methyl N-{4-[2-(2,2-dimethylazetidin-1-yl)-2-oxoethyl]phenyl}carbamate]
0.59 µM | 21.3 µM | COc1ccc(COC(=O)Nc2ccc(CC3CCN(C4COC4)CC3)cc2)cc1 [Compound 67, 4-methoxybenzyl (4-((1-(oxetan-3-yl)piperidin-4-yl)methyl)phenyl)carbamate]
1.43 µM | 9.75 µM | O=C(Nc1ccc(CC(=O)N2CCC[C@H](O)C2)cc1)OCc1ccc(Cl)cc1 [Compound 171, 4-chlorobenzyl (S)-(4-(2-(3-hydroxypiperidin-1-yl)-2-oxoethyl)phenyl)carbamate]
0.12 µM | 2.96 µM | CN(C)C(=O)N1CCC2(CC(Cc3ccc(NC(=O)OCc4cnco4)cc3F)C2)C1 (stereo not shown) [Compound 379, oxazol-5-ylmethyl (4-((6-(dimethylcarbamoyl)-6-azaspiro[3.4]octan-2-yl)methyl)-3-fluorophenyl)carbamate]
0.91 µM | 3.46 µM | COc1cc(C(=O)N[C@@H](C)c2ccc(NC(=O)OCc3ccc(Cl)cc3)cc2)cnc1C [Compound 110, (4-chlorophenyl)methyl N-{4-[(1S)-1-[(5-methoxy-6-methylpyridin-3-yl)formamido]ethyl]phenyl}carbamate]
2.58 µM | 21.3 µM | CN(Cc1ccc(NC(=O)OCc2ccc(Cl)cc2)cc1)C(=O)c1cncc(F)c1 [Compound 250, (4-chlorophenyl)methyl N-(4-{[1-(5-fluoropyridin-3-yl)-N-methylformamido]methyl}phenyl)carbamate]
0.18 µM | 11.9 µM | CS(=O)(=O)N1CCC(c2ccc(NC(=O)OCc3cnco3)cc2F)CC1 [Compound 415, oxazol-5-ylmethyl (3-fluoro-4-(1-(methylsulfonyl)piperidin-4-yl)phenyl)carbamate]
1.85 µM | 9.34 µM | O=C(Nc1ccc(CNC(=O)c2ncccc2F)cc1)OCc1ccc(Cl)cc1 [Compound 207, (4-chlorophenyl)methyl N-(4-{[(3-fluoropyridin-2-yl)formamido]methyl}phenyl)carbamate]
0.62 µM | 1.76 µM | O=C(Nc1ccc(CN2CCN(c3ncccn3)CC2)cc1)OCc1ccc(Cl)cc1 [Compound 73, 4-chlorobenzyl (4-((4-(pyrimidin-2-yl)piperazin-1-yl)methyl)phenyl)carbamate]

Structure (SMILES) | AC1.4 Human | EC50
O=C(Nc1ccc(CC2CCNCC2)cc1)OCc1ccc(Cl)cc1 [Compound 231, 4-chlorobenzyl (4-(piperidin-4-ylmethyl)phenyl)carbamate hydrochloride] | 2.13 µM | 33.8 µM
COC(=O)N1CCC(Cc2ccc(NC(=O)OCc3ccc(Cl)cc3)cc2)CC1 [Compound 98, methyl 4-(4-((((4-chlorobenzyl)oxy)carbonyl)amino)benzyl)piperidine-1-carboxylate] | 0.78 µM | 1.49 µM
O=C(Nc1ccc(CN2CCC[C@@H]2c2cccnc2)cc1)OCc1cnco1 [Compound 6, oxazol-5-ylmethyl (R)-(4-((2-(pyridin-3-yl)pyrrolidin-1-yl)methyl)phenyl)carbamate] | 0.07 µM | 0.55 µM
CN(C)C(=O)N1CCC[C@@H](c2ccc(NC(=O)OCc3cnco3)cc2)C1 [Compound 385, oxazol-5-ylmethyl (S)-(4-(1-(dimethylcarbamoyl)piperidin-3-yl)phenyl)carbamate] | 1.69 µM | 20.8 µM
CN1CCN(Cc2ccc(NC(=O)OCc3ccc(Cl)cc3)cc2)C(=O)C1 [Compound 28, 4-chlorobenzyl (4-((4-methyl-2-oxopiperazin-1-yl)methyl)phenyl)carbamate] | 0.36 µM | 3.01 µM
